Here are results for 29 compounds from patent US6635786B2, “Symmetrically disubstituted aromatic compounds and pharmaceutical compositions for inhibiting poly (ADP-ribose) glycohydrolase, and methods for their use” (Guilford Pharmaceuticals, Inc., priority 2001, dated 2003).

T1 sequence (Q86W56 378-976): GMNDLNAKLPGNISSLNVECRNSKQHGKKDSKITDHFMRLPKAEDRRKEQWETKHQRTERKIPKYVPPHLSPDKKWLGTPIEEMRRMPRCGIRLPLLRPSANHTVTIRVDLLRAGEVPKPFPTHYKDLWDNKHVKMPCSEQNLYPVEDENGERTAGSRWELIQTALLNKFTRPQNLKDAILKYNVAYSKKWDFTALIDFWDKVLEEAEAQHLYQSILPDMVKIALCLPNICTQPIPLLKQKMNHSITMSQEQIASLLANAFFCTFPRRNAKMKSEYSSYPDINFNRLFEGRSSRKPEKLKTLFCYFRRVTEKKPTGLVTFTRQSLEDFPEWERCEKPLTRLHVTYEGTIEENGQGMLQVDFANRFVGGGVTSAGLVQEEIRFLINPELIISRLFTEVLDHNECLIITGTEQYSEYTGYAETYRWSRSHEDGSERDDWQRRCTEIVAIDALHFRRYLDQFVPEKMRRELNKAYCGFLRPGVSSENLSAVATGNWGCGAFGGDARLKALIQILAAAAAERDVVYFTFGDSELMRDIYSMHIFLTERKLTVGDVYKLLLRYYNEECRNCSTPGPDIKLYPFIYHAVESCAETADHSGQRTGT

The experiment has as its target T1, human PARG (Homo sapiens, UniProt Q86W56).
T1 construct: human PARG from amino acid 378 to 976; GST (glutathione-S-transferase, pGEX-4T1) (N); made in house; host or cells: E. coli BL21
Briefly: PARG enzymatic assay. The class given is biochemical. The note with it: recombinant GST-fused human PARG (aa 378-976); 3H-labeled poly-(ADP-ribose) substrate; 23° C., 10 min. As to the method: The potency of PARG inhibition was determined in a PARG enzymatic assay. For each compound, various doses were used to inhibit the PARG reaction. A dose responsible curve was generated to determine the IC50 value and the concentration (in μM) required to achieve 50% inhibition of the reaction.
The PARG assay consisted of (a) preparation of 3H-labeled radioactive PARG as substrate, (b) purification of recombinant PARG, (c) incubation of the compound with the PARG reaction, (d) separation of the product by absorption to glass fiber filter and quantifying the radioactivity of ADP-ribose by scintillation counting.
3H-labeled poly-(ADP-ribose) was made by mixing labeled and unlabeled PAR. Labeled PAR was synthesized in a reaction of 50 mM Tris-HCl (pH 8.0), 4 mM MgCl2, 0.8 μg/mL activated DNA, 3 μM NAD, NEN 3H-NAD (0.1 mCi/mL), 0.8 μl/mL and 1.4 μl/mL Trevigen PARP. The reaction was incubated at room temperature for 60 min, then dialyzed to remove unincorporated 3H NAD using a MWCO 7000 dialysis cassette in 50 mM Phosphate buffer (pH 7.1) at 5° C. over night. Buffer was changed and dialysis continued for 2 h in the morning. The resulting 3H PAR gave 80,000 DPM/10 μL by scintillation counting.
Unlabeled PAR was synthesized in a reaction that consisted of 50 mM Tris-HCl (pH 8.0), 4 mM MgCl2, 0.8 μg/mL activated DNA, 150 μM NAD, and 1.9 μl/mL Trevigen PARP. The reaction was incubated at room temperature for 60 min, and dialyzed to remove unincorporated NAD in a MWCO 7000 cassette using 50 mM Phosphate buffer (pH 7.1) over night at […]. Buffer was changed and dialysis continued for 2 h in the morning. The OD260 of synthesized PAR is […].
The final PAR mix is made by combining 3H-PAR and PAR synthesized @ 150 μM NAD so that the OD260=0.2-0.3 and the DPM/10 μL=10,000 DPM (SA=0.45 Ci/mmole). EDTA was added to 1 mM.
A cDNA fragment encoding the carboxy terminal part of human PARG from amino acid 378 to 976 was amplified by polymerase chain reaction with human thymus cDNA (Clontech, Palo Alto, Calif.) as a template and a pair of primers with the sequences of 5′-[…]-3′ and 5′-[…]-3′. The primers contained the restriction enzyme sites EcoRI and XhoI. The PCR amplified PARG DNA fragment was digested with EcoRI and XhoI, and then ligated to the same sites in pGEX-4T1 plasmid (acquired from Pharmacia/Upjohn Co., Kalamazoo, Mich.) to create pGEX-PARG by using standard molecular biology procedure. The pGEX-PARG was transformed into E. coli strain BL21 for expressing the recombinant protein that has a glutathione-S-transferase at the amino terminus and fused in frame with PARG at the carboxy terminus. The recombinant protein was expressed and purified using glutathione-sephadex 4B beads according to the standard methodology.
A range of potential PARG inhibitors at final concentrations of 200.0 to 0.1 μM were tested, each point done in triplicate. The compounds were dissolved in DMSO resulting in a final DMSO concentration of 5.0%. The reaction was carried out in a volume of 0.1 mL. PARG enzyme was added to a concentration of 0.05 μL/mL to microtiter plates containing approximately 10 μM 3H-labeled poly-(ADP-ribose) in 50 mM Phosphate buffer (pH 7.1), 5 mM B-mercaptoethanol. The reaction was incubated at 23° C. for 10 min. and was stopped with the addition of TCA to a final concentration of 10%.
Enzyme activity was measured by the disappearance of substrate, [poly-(ADP-ribose) polymer], which was quantified as the loss of glass fiber filter adsorbed radioactivity. The reaction was harvested onto Millipore GFC96 well filter plates using the Packard Cell Harvestor. The plates were washed three times with 70% ethanol, air dried, and the radioactivity was measured by scintillation counting.
The term IC50 denotes the point on the concentration scale where inhibition reaches its midpoint. With `O=C(NCCN1CCCCC1)c1ccc2c(c1)-c1ccc(C(=O)NCCN3CCCCC3)c3cccc-2c13` [Example 24, 3,9-Bis[N-(2-piperidin-1-yl)ethyl]fluoranthenedicarboxamide], the IC50 was determined as 57 µM.
`O=C(OCc1ccccn1)c1ccc2c(c1)-c1ccc(C(=O)OCc3ccccn3)c3cccc-2c13` [Example 36, 3,9-Bis(2-pyridinylmethyl)fluoranthenedicarboxylate]: the concentration for half-maximal inhibition (IC50) came out at 106 µM.
`O=C(c1cccc2c1S(=O)(=O)c1c(cccc1C(=O)N1CCN(c3ccc(C(F)(F)F)cc3)CC1)O2)N1CCN(c2ccc(C(F)(F)F)cc2)CC1` [Example 44, 1,9-Bis-{N-[4-(4-trifluoromethyl-phenyl)-piperazine]carbamoyl}-10,10-dioxo-phenoxathiin]: the concentration for half-maximal inhibition (IC50) came to 12 µM.
With `O=C(OCCc1ccccc1)c1ccc2c(c1)C(Cl)(Cl)c1cc(C(=O)OCCc3ccccc3)ccc1-2` [Example 5, 9,9-Dichloro-9H-fluorene-2,7-dicarboxylic acid bis-(2-phenyl-ethyl) ester], the IC50 came to 11.2 µM.
`O=C(NCCc1ccc(Cl)cc1Cl)c1cccc2c1S(=O)(=O)c1c(cccc1C(=O)NCCc1ccc(Cl)cc1Cl)O2` [Example 48, 1,9-Bis{N-[2-(2,4-dichlorophenyl)ethyl]carbamoyl}-10,10-dioxo-phenoxathiin]: the half-inhibitory concentration (IC50) was found to be 38.7 µM.
Consider “3,9-Bis{N-[(2,3-dimethoxy-phenyl)]-methyl}fluoranthenedicarboxamide [Example 34]”, for which the IC50 stood at 31.2 µM.
On to `O=C(NCc1cccc2ccccc12)c1ccc2c(c1)C(Cl)(Cl)c1cc(C(=O)NCc3cccc4ccccc34)ccc1-2` [Example 14, 2,7 Bis-[N-(naphthalen-1-ylmethyl)-carbamoyl]-9,9-dichloro-9H-fluorene], for which the IC50 turned out to be 47.7 µM.
Then `N#CC1CCC(CNC(=O)c2ccc3c(c2)-c2ccc(C(=O)NCC4CCC(C#N)CC4)c4cccc-3c24)CC1` (centres unmarked) [Example 31], with 30.4 µM; and `O=C(c1cccc2c1S(=O)(=O)c1c(cccc1C(=O)N1CCN(c3ccc(O)cc3)CC1)O2)N1CCN(c2ccc(O)cc2)CC1` [Example 45, 1,9-Bis{N-[4-(4-hydroxy-phenyl)-piperazine]carbamoyl}-10,10-dioxo-phenoxathiin], with 37.9 µM; and `O=C(NCCc1ccc(Cl)cc1Cl)c1ccc2c(c1)-c1ccc(C(=O)NCCc3ccc(Cl)cc3Cl)c3cccc-2c13` [Example 30, 3,9-Bis[N-[2-(2,4-dichloro-phenyl)]-ethyl]fluoranthenedicarboxamide], with 21.2 µM.
Then `O=C(NCCCc1ccccc1)c1cccc2c1S(=O)(=O)c1c(cccc1C(=O)NCCCc1ccccc1)O2` [Example 47, 1,9-Bis-[N-(3-phenpropyl)carbamoyl]-10,10-dioxo-phenoxathiin], with 100 µM; and `O=C(OCc1ccc(O)c(O)c1)c1ccc2c(c1)C(Cl)(Cl)c1cc(C(=O)OCc3ccc(O)c(O)c3)ccc1-2` [Example 6, 9,9-Dichloro-9H-fluorene-2,7-dicarboxylic acid bis-(3,4-dihydroxy-benzyl) ester], with 10 µM; and `NS(=O)(=O)c1ccc(CCNC(=O)c2ccc3c(c2)-c2ccc(C(=O)NCCc4ccc(S(N)(=O)=O)cc4)c4cccc-3c24)cc1` [Example 35, 3,9-Bis[N-[2-(4-sulfamoyl-phenyl)]-ethyl]fluoranthenedicarboxamide], with 15.1 µM.
Take `COc1cc(CCNC(=O)c2cccc3c2S(=O)(=O)c2c(cccc2C(=O)NCCc2cc(OC)cc(OC)c2)O3)cc(OC)c1` [Example 52, 1,9-Bis {N-[2-(3,5-dimethoxyphenyl)ethyl]carbamoyl}-10,10-dioxo-phenoxathiin]: the IC50 is 31.6 µM.
Turning to `O=C(NCCCN1CCOCC1)c1ccc2c(c1)-c1ccc(C(=O)NCCCN3CCOCC3)c3cccc-2c13` [Example 27], the half-maximal inhibitory concentration (IC50) is 100 µM.
Consider `O=C(OCCc1cccc2ccccc12)c1ccc2c(c1)C(Cl)(Cl)c1cc(C(=O)OCCc3cccc4ccccc34)ccc1-2` [Example 8, 9,9-Dichloro-9H-fluorene-2,7-dicarboxylic acid bis-(2-naphthalen-1-yl-ethyl) ester], for which the IC50 came out at 17.1 µM.
For `O=C(CCCl)c1ccc2oc3ccc(C(=O)CCCl)cc3c(=O)c2c1` [Example 38, 2,7-Bis-(3-chloro-propionyl)-xanthen-9-one], the half-maximal inhibitory concentration (IC50) turned out to be 17 µM.
For the compound `O=C(NCCN1CCCC1)c1ccc2c(c1)-c1ccc(C(=O)NCCN3CCCC3)c3cccc-2c13` [Example 25, 3,9-Bis[N-(2-pyrrolidin-1-yl)-ethyl]fluoranthenedicarboxamide], the IC50 came to 28.6 µM.
In the case of `COc1ccc(CCCCOC(=O)c2ccc3c(c2)C(Cl)(Cl)c2cc(C(=O)OCCCCc4ccc(OC)cc4)ccc2-3)cc1` [Example 12, 9,9-Dichloro-9H-fluorene-2,7-dicarboxylic acid bis-[4-(4-methoxy-phenyl)-butyl]ester], the IC50 worked out at 18.3 µM.
Consider `COc1cccc(CCNC(=O)c2ccc3c(c2)-c2ccc(C(=O)NCCc4cccc(OC)c4)c4cccc-3c24)c1` [Example 33, 3,9-Bis{N-[2-(3-methoxy-phenyl)]-ethyl}fluoranthenedicarboxamide], for which the IC50 was 45.5 µM.
For `CN(CCCC(=O)c1ccc2c(c1)-c1ccc(C(=O)CCCN(C)c3ccccc3)c3cccc-2c13)c1ccccc1` [Example 53, 3,9-Bis[4-(methylphenylamino)butyryl]fluoranthene], the IC50 was 11.8 µM.
Then `O=C(NCc1ccccc1)c1ccc2c(c1)-c1ccc(C(=O)NCc3ccccc3)c3cccc-2c13` [Example 23, 3,9-Bis(N-phenylmethyl)fluoranthenedicarboxamide], with 35.2 µM; and `O=C(NCCCN1CCOCC1)c1cccc2c1S(=O)(=O)c1c(cccc1C(=O)NCCCN1CCOCC1)O2` [Example 51, 1,9-Bis{N-[3-(morpholin-4-yl)-propyl]carbamoyl}-10,10-dioxo-phenoxathiin], with 9.6 µM.
`O=C(OCc1ccc(F)cc1)c1ccc2c(c1)C(Cl)(Cl)c1cc(C(=O)OCc3ccc(F)cc3)ccc1-2` [Example 4, 9,9-Dichloro-9H-fluorene-2,7-dicarboxylic acid bis-(p-fluorobenzyl) ester]: the IC50 was 18.9 µM.
Consider `O=C(NCCN1CCCC1)c1cccc2c1S(=O)(=O)c1c(cccc1C(=O)NCCN1CCCC1)O2` [Example 49, 1,9-Bis{N-[2-(pyrrolidin-1-yl)ethyl]carbamoyl}-10,10-dioxo-phenoxathiin], for which the IC50 was determined as 9.9 µM.
With `O=C(CCCn1cccc1)c1ccc2c(c1)-c1ccc(C(=O)CCCn3cccc3)c3cccc-2c13` [Example 54, 3,9-Bis[4-(1-pyrrolo)butyryl]fluoranthene], the IC50 amounted to 5.4 µM.
Regarding `O=C(OCc1cccc2ccccc12)c1ccc2c(c1)C(Cl)(Cl)c1cc(C(=O)OCc3cccc4ccccc34)ccc1-2` [Example 11, 9,9-Dichloro-9H-fluorene-2,7-dicarboxylic acid bis-(2-naphthalen-1-yl-methyl) ester], the IC50 was determined as 7.9 µM.
With `O=C(NCCc1ccccc1)c1ccc2c(c1)C(Cl)(Cl)c1cc(C(=O)NCCc3ccccc3)ccc1-2` [Example 15, 2,7-Bis-[N-(phenethyl)-carbamoyl]-9,9-dichloro-9H-fluorene], the half-maximal inhibitory concentration (IC50) amounted to 24.9 µM.
As to “3,9-Bis[3-(1-pyrrolo)propionyl]fluoranthene [Example 55]”, the concentration for half-maximal inhibition (IC50) worked out at 27.3 µM.
